What was measured:
16S rRNA = experiment: Fluorescence anisotropy competition binding (CRP displacement) to 16S rRNA; settings: competition with CRP probe, 20° C., pH 7.5; read-out: binding force (bond constant KD) against 16s rRNA
Method: (§1) The RNA of the present invention was prepared with sense DNA of 16S rRNA (sequence listing 1) and an antisense DNA of 16S rRNA (sequence listing 2); a sense DNA of RRE RNA (sequence listing 3) and an antisense DNA of RRE RNA (sequence listing 4); and a sense DNA of TS RNA (sequence listing 5) and an antisense DNA of TS RNA (sequence listing 6). […]
(§2) The paromomycin bonded with tetramethylrhodamine (hereinafter referred to as […]) is used as a luminescence fluorescent probe. The luminescence anisotropy is measured by establishing a thermostat of 20° C. at the Perkin-Elmer LS-50B luminescence spectroscope. The luminescence absorptance of CRP is 510 nm and its luminescence fluorescent is observed at 550 nm. […] The luminescence was measured at an elution buffer using 140 mM NaCl, 5 mM KCl, 1 mM MgCl2, and 20 mM HEPES pH 7.5. […]
(§3) A is the luminescence anisotropy value of CRP when RNA is present,
(§4) A0 is the luminescence anisotropy value of CRP when RNA is not present,
(§5) DA is the difference of luminescence anisotropy value when RNA is not present between various RNA concentrations, […]
(§6) If the newly prepared compound is added to the solution after inducing the bonding of the said RNA and CRP, CRP is separated from RNA by a competitive bonding reaction and the compound to be measured achieves a KD value by bonding with RNA. […]
(§7) [Aminoglycoside]0 is the initial concentration of aminoglycoside to be measured, […]

RRE RNA = experiment: Fluorescence anisotropy competition binding (CRP displacement) to RRE RNA; set-up: species or system HIV; settings: competition with CRP probe, 20° C., pH 7.5; read-out: binding force (bond constant KD) against RRE RNA
Method: as §1, §2, §3, §4, §5, §6, §7

TS RNA = experiment: Fluorescence anisotropy competition binding (CRP displacement) to TS RNA; settings: competition with CRP probe, 20° C., pH 7.5; read-out: binding force (bond constant KD) against TS RNA
Method: as §1, §2, §3, §4, §5, §6, §7

Measured: Kd

Neomycin [reference compound]
> 2000 nM: 16S rRNA | RRE RNA | TS RNA
